Reference: patent US6387950B2, “Treatment of tumors with RARα selective retinoid compounds in combination with other anti-tumor agents” (Allergan Sales, Inc., priority 2000, dated 2002)

How the values were obtained:
RARα receptors = target: T1, RARα receptors (Homo sapiens, UniProt P10276); assay: chimeric receptor transactivation assay, RARα; assay type: cell-based
T1 sequence (P10276 183-417 limits assumed): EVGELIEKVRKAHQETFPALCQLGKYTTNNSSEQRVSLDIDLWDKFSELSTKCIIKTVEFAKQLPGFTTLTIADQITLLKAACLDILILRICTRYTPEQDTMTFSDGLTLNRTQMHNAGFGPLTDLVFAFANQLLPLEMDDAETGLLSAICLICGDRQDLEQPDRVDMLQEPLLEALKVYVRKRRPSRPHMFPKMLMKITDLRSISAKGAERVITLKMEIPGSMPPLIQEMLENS
From the text: (§1) For example, a chimeric receptor transactivation assay which tests for agonist-like activity in the RARα, RARβ, RARγ, RXRα receptor subtypes, and which is based on work published by Feigner P. L. and Holm M. (1989) Focus, 112 is described in detail in U.S. Pat. No. 5,455,265. The specification of U.S. Pat. No. 5,455,265 is hereby expressly incorporated by reference.
(§2) The results obtained in this assay are expressed in EC50 numbers, as they are also in the chimeric receptor transactivation assay.

RARγ receptors = target: T2, RARγ receptors (Homo sapiens, UniProt P13631); assay: chimeric receptor transactivation assay, RARγ; assay type: cell-based; conditions: agonist activity
T2 sequence (P13631 185-419 limits assumed): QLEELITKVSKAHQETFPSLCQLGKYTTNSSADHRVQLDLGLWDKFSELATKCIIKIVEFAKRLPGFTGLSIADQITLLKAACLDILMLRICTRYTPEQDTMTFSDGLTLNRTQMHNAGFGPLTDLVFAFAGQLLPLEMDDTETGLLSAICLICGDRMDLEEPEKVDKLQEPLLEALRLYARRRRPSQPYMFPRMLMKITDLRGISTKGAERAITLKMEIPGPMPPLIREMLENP
From the text: as §1, §2

SKBR-3 cells = assay: cell proliferation assay (BrdU incorporation), SKBR-3; assay type: cell-based, human
Protocol: The SKBR-3 and T47-D cell cultures in which the assay procedures were performed are also well known and are available from sources well known in the art. Specifically, as is known, T-47D is an estrogen receptor positive (ER^+) human breast cancer cell line, and SK-BR-3 is an estrogen receptor negative (ER^−) human breast cancer cell line. The assay procedure which itself is well known in the art, involves determining incorporation of 5-bromo-2′-deoxyuridine (BrdU) into the cells. As is known, incorporation of less BrdU represents less cell proliferation (inhibition of cell proliferation), and this assay is accepted in the art as a measure of anti-proliferative or anti-tumor activity of the assayed agent or agents.
The estrogen receptor-positive (ER^+) cell line T-47D and the ER^−-cell line SK-BR-3 were cultured in Dulbecco's modification of Eagle's medium (DMEM Gibco BRL, Gaithersburg, Md.) supplemented with 10% fetal bovine serum (HyClone, Logan, Utah), 2 mM L-glutamine and 1% antibiotics-antimycotics (Gibco BRL). Cell lines were obtained from the American Type Culture Collection (ATCC, Rockville, Md., HTB-133 and HTB-30 for T47-D and SKBR-3, respectively). Cells were cultured at 37° C. in a humidified atmosphere containing 5% CO2.
Proliferation of cancer cell lines was determined using a commercial cell proliferation kit (Roche Diagnostics), essentially following the instructions of the manufacturer. Cells were seeded into 96-well tissue culture plates (Corning Incorporated, Corning, N.Y.) at a concentration of 3000 cells/well. After 24 hours, cells were treated with Compound 2 (AGN195183) and/or interferons (IFNs) or solvent alone. The appropriate concentrations of Compound 2 (AGN195183) used in this study were between 10^−11M and 10^−6M; IFNs concentrations were between 25 and 1000 Unit/ml. Culture media were changed every 72 hours. After 7days, 10 μl of 5-bromo-2′-deoxyuridine (BrdU) was added to each well. Incubation with BrdU was stopped 24 hours later by adding 100 μl of anti-BrdU antibody to each well. The amount of BrdU incorporated into the DNA of proliferating cells was assessed by measuring absorbance at 450 nm. Each experiment was performed in triplicate.
The growth inhibition observed in the cell cultures as a result of treatment with a combination of Compound 2 (AGN195183) of the invention and the interferons (IFNs) was analyzed for synergistic and additive effects.
Synergism was defined as: %A×% B>%AB
Additivity was defined as: %A×%B=%AB
where A and B are the effects of each individual agent and AB is the effect of the combination, in accordance with the teaching of Aapro et al., Cancer Chemother. Pharmacol., 10: 161 -166, 1983, and Marth et al., J. Natl. Cancer Inst., 77:1197-1202, 1986), both of which are expressly incorporated herein by reference.
Referring now to the graphs of FIGS. 1 through 12, each of these represents the results obtained in the above described assays where SKBR-3 and T47-D cells, respectively, were treated with a combination of Compound 2 of the invention and human recombinant interferon (IFN) α, β, and γ, respectively. The graph of FIG. 13 illustrates the results of treatment of these two cell cultures only with Compound 2 of the invention, without the use of any other anti-tumor agent. In each of these graphs the incorporation of 5-bromo-2′-deoxyuridine (BrdU) is plotted on the Y (vertical) axis and varying concentration of Compound 2 of the invention or varying concentration of IFNα. IFNβ or of IFNγ, respectively is plotted on the X (horizontal) axis. The concentration of the interferons is expressed in international units, as is accepted in the art, whereas the molar concentration of Compound 2 is plotted on a logarithmic scale. […]

- EC50 (RARα receptors): 180 nM
- efficiency (RARα receptors): 75%
- EC50 (RARγ receptors): > 10000 nM
Compound: CC1(C)CCC(C)(C)c2c1cc(C(=O)Nc1cc(F)c(C(=O)O)c(F)c1)c(O)c2Cl [Compound 2, 2,6-Difluoro-4-[(3-hydroxy-4-chloro-5,5,8 8-tetramethyl-5,6,7,8-tetrahydronaphthalene-2-carbonyl) -amino]-benzoic acid]
- anti-proliferative effect of the combination (BrdU incorporation) (SKBR-3 cells; Compound 2 10 nM, IFNα varied, FIG. 1): synergistic effect
- anti-proliferative effect of the combination (BrdU incorporation) (SKBR-3 cells; Compound 2 10 nM, IFNα varied, FIG. 1, listed as AGN 195183): synergism
- anti-proliferative effect of the combination (BrdU incorporation) (SKBR-3 cells; Compound 2 10 nM, IFNβ varied, FIG. 2): significant synergistic effect
- anti-proliferative effect of the combination (BrdU incorporation) (SKBR-3 cells; Compound 2 10 nM, IFNβ varied, FIG. 2, listed as AGN 195183): synergism
- anti-proliferative effect of the combination (BrdU incorporation) (SKBR-3 cells; Compound 2 10 nM, IFNγ varied, FIG. 3): significant synergistic effect
- anti-proliferative effect of the combination (BrdU incorporation) (SKBR-3 cells; Compound 2 10 nM, IFNγ varied, FIG. 3, listed as AGN 195183): synergism
- anti-proliferative effect of the combination (BrdU incorporation) (SKBR-3 cells; IFNα 100 U/ml, Compound 2 varied, FIG. 4): significant synergistic effect
- anti-proliferative effect of the combination (BrdU incorporation) (SKBR-3 cells; IFNα 100 U/ml, Compound 2 varied, FIG. 4, listed as AGN 195183): synergism
- anti-proliferative effect of the combination (BrdU incorporation) (SKBR-3 cells; IFNβ 100 U/ml, Compound 2 varied, FIG. 5): significant synergistic effect
- anti-proliferative effect of the combination (BrdU incorporation) (SKBR-3 cells; IFNβ 100 U/ml, Compound 2 varied, FIG. 5, listed as AGN 195183): synergism
- anti-proliferative effect of the combination (BrdU incorporation) (SKBR-3 cells; IFNγ 100 U/ml, Compound 2 varied, FIG. 6): significant synergistic effect
- anti-proliferative effect of the combination (BrdU incorporation) (SKBR-3 cells; IFNγ 100 U/ml, Compound 2 varied, FIG. 6, listed as AGN 195183): synergism
